Assays:
TAR RNA [1] = assay: L-arginine-Amberlite affinity column elution of TAR RNA; format: binding, HIV-1; settings: concentration that elutes 50% of TAR RNA from L-arginine-Amberlite affinity column
Method: (§1) The model Tat peptide (R52: […]) was prepared by the Weizmann Institute Chemical Services and was purified by reverse phase HPLC (C-18) (Lapidot et al., 1995). […] The RNA was transcriptionally labeled with α-^32P UTP, purified on a 12% polyacrylamide/7M urea gel (19:1 acrylamide:bis-acrylamide) and was eluted from the gel by 0.5M ammonium acetate, 10 mM magnesium acetate, 1 mM EDTA and 0.1% SDS. The sample was subjected to phenol extraction and the RNA was precipitated from 70% ethanol. Purified RNA was dissolved in diethyl pyrocarbonate-treated water (DEPC water), its concentration was determined by UV absorption at 260 nm and the specific radioactivity was determined by scintillation counting on a LS 1701 “Bruker” counter.
The L-arginine-Amberlite resin was prepared as follows: Carboxyl groups of Amberlite IRC-50 resin were covalently modified with ethanolamine using 1-(3-dimethylaminopropyl) 3-ethylcarbodiimide, a water-soluble coupler. The hydroxy ethyleneamide resin obtained was washed and dried, and L-arginine (12-16 μmols per ml of resin) was coupled to the hydroxy groups of the resin via an isourea moiety using a standard cyanogen bromide protocol. The final concentration of arginine residues was 12-16 μmol per ml of resin. The swollen L-arginino-Amberlite resin (200 μl) was packed into a plastic mini-column and equilibrated with buffer containing 40 mM Tris HCl, pH 7.5, 250 mM NaCl, 0.5 mM EDTA and 5 mM MgCl2 (buffer A). Approximately 1 ng of ^32P-UTP labeled TAR RNA in buffer A was loaded on the column. The column was eluted 3 to 5 times with 400 μl portions of buffer A, until no radioactivity was detected in the eluent. […] Each of the test compounds was dissolved in buffer A and passed through the column in 300 μl portions. Radioactivity of the eluates was determined by scintillation counting on a LS 1701 “Bruker” counter. CE50 values, the concentrations of inhibitors eluting 50% of the radioactive material from the column, were determined.

TAR RNA [2] = assay: Gel-shift binding to TAR RNA; parameters: species or system HIV-1; settings: for CD50: 50% binding; for effect of ten-fold excess of yeast tRNA on complex formation with TAR: ten-fold excess of tRNA (100 ng per lane)
Method: as §1
To study the affinity of the test compounds to TAR, gel-shift and gel-shift inhibition experiments were performed. The binding reaction mixtures (20 μl) contained ^32P-labeled TAR (18-44) RNA oligonucleotide (3-6 nM) and Tat R52 peptide (35-75 nM) in a binding buffer (10 mM Tris-HCl pH 7.5, 70 mM NaCl, 0.2 mM EDTA and 5% glycerol). The reaction mixtures were incubated for 10 minutes on ice and resolved by electrophoresis on a 10% non-denaturing polyacrylamide gel (40:1 acrylamide:bis-acrylamide) at 200V, for 3 h at 4° C. Gels were dried and visualized by autoradiography. Quantitations were obtained by optical densitometry of films. Alternatively, results were visualized by exposing the wet gels to Fuji phosphoimager plates, which were read on a “Storm 820” (Molecular Dynamics) phosphoimager. […]
Binding of aminoglycoside-arginine conjugates (AAC) to TAR RNA was measured by adding varying concentrations of each conjugate to reaction mixtures (20 μl) which contained 12 nM ^32P-labeled TAR RNA. The reactions were analyzed as described above.

TAR RNA [3] = assay: Gel-shift binding to TAR RNA; parameters: species or system HIV-1; settings: 50% binding; TAR RNA 2 nM
TAR RNA [4] = assay: RNase A footprinting of TAR RNA; format: binding, HIV-1; settings: 1 μM TAR, 200 pM RNase A
Method: In a typical experiment 10 μl of 5 mM cacodylate buffer pH 6.5, containing 25 mM KCl and 50-100 ng 5′ ^32P-labeled TAR RNA (approximately 0.5-1 μM) were incubated with 200 pM RNase A (Sigma) at room temperature for 10 minutes in the presence of Tat R52 and the conjugates of the invention at various concentrations. In the competition experiments, the mixture was supplemented with 0.5 μg yeast tRNA (Sigma). After the incubation, 10 μl of formamide/bromphenol blue loading buffer was added to the samples. The samples were heated to 80° C. for 2 min and were resolved by electrophoresis on 40 cm×0.8 mm 20% polyacrylamide denaturing gel (7M urea) for 3 hours at 55° C. The results were visualized by a phosphoimager as described above and quantitated using ImageQuant software.
TAR RNA and RNase A concentrations were established by co-titration. To produce a “single-hit” kinetics conditions, 1 μM TAR versus 200 pM RNase A were selected. Tat R52 and AAC concentrations were determined by titration. […] RNase A cleaved TAR RNA in an uneven manner (FIG. 4A., lane 2). The most susceptible regions for cleavage were the single-stranded loop, nucleotides U31-G34 as well as C24 and U25 of the bulge. Strong cleavage was also observed at G21-G41 and A20-U42 pairs (lower stem). Binding of R52 (2-4 μM) caused a weakening of the bands in the upper stem region, (G26-C39, A27-C38, as well as U40) (FIG. 4A., lanes 3, 4). At 4 μM R52, the cleavage at G34 (loop) was enhanced, as well as a certain enhancement of bands A20, G21, U23 and U25 was observed. Remarkably, the band corresponding to the R52-TAR complex still was observed on the gels even after electrophoresis under strongly denaturing conditions. In the presence of R4K (10-20 μM), the upper stem (G26-C29), the lower stem and the bulge (G21-U23, partially C24 and U25) were protected as well as C38, C39 and U40. Cleavage at C19 and A20 of the lower stem and C30, G33 and G34 of the loop was enhanced by 10 μM R4K, whereas with 20 μM R4K the protection of C30, G34 and A20-G21 was observed (FIG. 4A., lanes 5, 6). […] Cleavages at C19-A20 in the lower stem as well as at G30 and G34 in the loop were observed (FIG. 4A., lanes 7, 8). In the presence of GB4K (20 μM) no significant protection was observed.

For “YKKKRKKKKKA [Tat R52 peptide, Tat-derived model undeca peptide, containing a single arginine moiety at position 52 of native Tat protein, in the strand of lysines, reference compound]”, which CE50 (TAR RNA [1]) is on record?
The CE50 was 0.5 mM.

What about the CD50 (TAR RNA [2]; TAR RNA 6 nM) of the same sequence?
The CD50 was 35 nM.

And the CD50 (TAR RNA [2]; TAR RNA 12 nM)?
Its CD50 is 75 nM.

And the CD50 (TAR RNA [2]; TAR RNA 20 nM)?
Its CD50 is 200 nM.

And the “effect of ten-fold excess of yeast tRNA on complex formation with TAR” value (TAR RNA [2])?
The value was “do not inhibit the binding”.

And the “effect of ten-fold excess of yeast tRNA on complex formation with TAR” value (TAR RNA [2]; listed as R52)?
The value was “did not inhibit complex formation”.

What about the CD50 (TAR RNA [3]) of the same sequence?
The CD50 was 6 to 12 nM.

And the “concentration giving effective protection of TAR” value (TAR RNA [4])?
Its value is 2 µM.

— patent US6642365B1, “Anti-(retro)viral conjugates of saccharides and acetamidino or guanidino compounds” (Yeda Research and Development Co. Ltd., priority 2001, dated 2003)
